Earlier results on 1 compound are cited in patent publication US11413229B2, “Oral plaque dispersion agent” (KAO CORPORATION, priority 2016, dated 2022).

The conditions of the data set: at 20° C.

Each structure is given as a SMILES string.

Consider `CC(CO)(CO)CO` [Trimethylolethane, 1,1,1-tris(hydroxymethyl)ethane], for which the solubility to water is recorded as 60 g/100 mL.
